From paper PMC11094793, “Discovery of LLC0424 as a Potent and Selective in Vivo NSD2 PROTAC Degrader” (Journal of Medicinal Chemistry, 2024)

How the values were obtained:
Type in all cases: cell-based, human
RPMI-8402 cells [1] = experiment: TMT global proteomics in RPMI-8402 cells; conditions: for Abundance Ratio (log2): (LLC0424) / (DMSO): RPMI-8402
Description: We conducted a global proteomic assay using tandem mass tags (TMT) labeled mass-spectrometry to unbiasedly quantify the protein change upon LLC0424 treatment in VCaP and RPMI-8402 cells. […] We further used SEM cell line to cross-validate the selectivity of LLC0424 for NSD2 over NSD1 and NSD3 as well as CRBN neo-substrates IKZF1, IKZF3, GSPT1, and CK-1α using immunoblotting. […] When we increased the treatment time of LLC0424 in SEM cells, we observed mild decrease of GSPT1 from 12 h (SI, Figure S3F).
RPMI-8402 cells were plated at 10 × 10^6 cells per plate on 10 cm tissue culture plates overnight before treating with DMSO (control) or 2 μM LLC0424 with 3 replicates for each treatment. After 8 h, whole cell lysates were collected using RIPA buffer (ThermoFisher Scientific) and quantified using Pierce Bovine Serum Albumin Standard Pre-Diluted Set (ThermoFisher Scientific). Cell lysates were proteolyzed and labeled with TMT 6-plex Isobaric Label Reagent (ThermoFisher Scientific) according to the protocol from the manufacturer and subjected to 8 fractions of liquid chromatography–mass spectrometry (LC-MS)/MS analysis as described.[33] We plotted the results using graphpad prism. To gain protein changes with high confidence, we screened the results of (LC-MS)/MS analysis with the criteria of peptides number >4 and unique peptides number >1. […]
Figure S3. LLC0424 was a selective NSD2 degrader. […]

SEM cells = experiment: Cell viability assay (CellTiter-Glo, 7 days), SEM; conditions: Homo sapiens, 168 h, read-out: IC50 (growth, cell viability)
Description: Cells were plated in 50 μL of the corresponding media in 96-well plates. A 2-fold dilution series of 2* concentrated LLC0424 was prepared in a medium with the highest concentration being 60 μM. Then 50 μL of the 2× compound-containing mixture was added to each well with 6 replicates for each concentration, reaching 1× concentration, with the highest concentration being 30 μM. The plate was incubated for 7 days. At the end point, the CellTiter-Glo assay (Promega) was then performed according to the manufacturer’s instruction to determine cell proliferation. The luminescence signal intensity of each well was acquired on an Infinite M1000Pro microplate reader and the data was analyzed using GraphPad Prism software (GraphPad Software).

RPMI-8402 cells [2] = experiment: Proliferation assay (CellTiter-Glo, 9 days), RPMI-8402; conditions: 5 μM (Fig 6E) or 2 μM (Fig S4A)
Description: 2 × 10^3 cells per well were seeded in 5 replicates into 96-well plates and treated with 5 μM of the compound. Every 4 days, we added the compound with 5 μL of the 20* compound-containing mixture, reaching 1*concentration. Cell proliferation was evaluated by CellTiter-Glo assay (Promega).

RPMI-8402 cells [3] = experiment: Colony formation in soft agar; conditions: 30 days
Description: Colony formation in soft agar was conducted in 12-well plates, with the bottom layer containing 750 μL of 0.8% agarose in 10% FBS/cell media and the top layer containing 0.4% agarose (SEM cells or RPMI-8402 cells). LLC0424 was added every 3 days to the liquid layer on top agarose to reach a final concentration of 2 μM. At the 30 days of treatment, the cells were stained with iodonitrotetrazolium chloride (INT) by adding 500 μL 1× INT PBS solution into each well. After the staining, images were taken using brightfield microscope and plate scan was conducted using Epson Perfection V700 Photo. Colony number counting was performed using ImageJ.

[4] = tested on: NSD2-overexpressed SEM cells; experiment: Viability of NSD2-overexpressed versus parental SEM cells; conditions: 2 μM LLC0424, 9 days, CTG assay
Description: NSD2 is the primary methyltransferase that transfers dimethyl to H3K36 in ALL with NSD2 gain-of-function mutation. Therefore, the effects of LLC0424 on H3K36me2 was evaluated in SEM and RPMI-8402 cells. […] Meanwhile, LLC0424 treatment also led to downregulation of H3K36Me2 in RPMI-8402 cells within 24 h (Figure 6B). […] We also conducted a colony formation assay to evaluate the effect of LLC0424 on the stem cell-like property of the leukemia cells. […]
Figure S4. […] (A) SEM or RPMI-8402 cells were treated with 2 µM LLC0424, degrader 6, degrader 7, or DMSO for 9 days and quantified for cell viability by CellTiter-Glo (CTG) assay at different days. Data are reported as the mean of five independent experiments ± SD; (B) RNA sequencing of SEM cells treated with LLC0424N or DMSO; (C) Immunoblotting of NSD2, and H3 in parental and NSD2-overexpression SEM cell lines; (D) parental or NSD2 overexpression SEM cells were treated with DMSO or 2 µM LLC0424 for 9 days and quantified for cell viability by CTG assay. Data are reported as the mean of four independent experiments ± SD; (E) VCaP cells and 22RV1 cells were treated with DMSO, 2 µM LLC0424, or 2 µM LLC0424N for 18 days and quantified for cell viability by CTG assay at different days. […]

[5] = compared to DMSO or LLC0424N-treated group

In the case of O=C1CCC(N2C(=O)c3ccc(N4CCC(NC(=O)c5ccc(NC(=O)c6ccc(CN(C(=O)c7ccc8c(c7)OCC(=O)N8)C7CC7)cc6)cc5)CC4)cc3C2=O)C(=O)N1 (stereo not drawn) [compound 10l, N-Cyclopropyl-N-(4-((4-((1-(2-(2,6-dioxopiperidin-3-yl)-1,3-dioxoisoindolin-5-yl)piperidin-4-yl)carbamoyl)phenyl)carbamoyl)benzyl)-3-oxo-3,4-dihydro-2H-benzo[b][1,4]oxazine-7-carboxamide], the “Abundance Ratio (log2): (LLC0424) / (DMSO)” value (RPMI-8402 cells [1]; protein accession P35579) is reported as 0.04, the “Abundance Ratio (log2): (LLC0424) / (DMSO)” value (RPMI-8402 cells [1]; protein accession P78527) is reported as -0.02 and the “Abundance Ratio (log2): (LLC0424) / (DMSO)” value (RPMI-8402 cells [1]; protein accession Q01082) is reported as 0.05. The “Abundance Ratio (log2): (LLC0424) / (DMSO)” value (RPMI-8402 cells [1]; protein accession Q13813) was 0.03, the “Abundance Ratio (log2): (LLC0424) / (DMSO)” value (RPMI-8402 cells [1]; protein accession Q14204) was 0.05 and the “number of proteins significantly decreased in global proteomics” value (RPMI-8402 cells [1]; RPMI-8402 cells, 2 μM) was 3. For the same molecule, the IC50 (SEM cells) was 3.56 µM, the “cell growth on treatment for 9 days” value (RPMI-8402 cells [2]) was “significantly inhibited” and the “formation of cell colonies” value (RPMI-8402 cells [3]; 2 μM, INT staining) was “significantly reduced the formation of cell colonies”. The colony area (RPMI-8402 cells [3]; [5]) was “obviously smaller colonies”, the colony numbers (RPMI-8402 cells [3]; [5]) was “significantly fewer cell colonies” and the “cell viability in NSD2-overexpressed versus parental SEM cells” value [4] was “significantly higher in NSD2-overexpressed SEM cells”.
